Our source for the IC50 values is patent publication US20250388589A1, “TRICYCLIC HETEROCYCLIC DERIVATIVES, COMPOSITIONS AND USES THEREOF” (Danatlas Pharmaceuticals Co., Ltd., priority 2022, published 2025).

In experiment [1] the target is hPARG (C-terminal His6-tag) (Homo sapiens (Human), UniProt Q86W56). Nature of the experiment: PARG Enzymatic Activity Assay (HTRF). It is filed as biochemical. Particulars: hPARG 65 pM final, biotinylated-NAD ribosylated PARP1 8 nM final. On the procedure: PARG Enzymatic Activity Assay HTRF assay was used to measure the ability of compounds to inhibit the activity of PARG in vitro. C-terminal His6-tag PARG expressed in E. coli was purified and stored at −80° C. in aliquots. Assay measurements were performed with 1×buffer comprising 50 mM Tris pH 7.4, 0.1 mg/mL BSA, 3 mM EDTA, 0.4 mM EGTA, 1 mM DTT, 50 mM KCl and 0.01% Tween 20.
Compounds dissolved in DMSO were plated into a 384-well assay plate (PerkinElmer, Catalog #: 6008280) in duplicate using a dispenser (Labcyte, Echo 665), and tested on a 10-point 4-fold serial dilution. Add 5 L Enzyme mix [hPARG (C-terminal His6-tag, 4.2 μM), 65 pM final] to the test wells. The plates were covered and left to incubate for 60 minutes at RT before the addition of 5 L substrate mix [biotinylated-NAD ribosylated PARP1 (6.1 μM), 8 nM final] to initiate reaction. After incubating 10 minutes at RT, add 2.5 L Streptavidin-Eu cryptate (Cisbio, Catalog #: 610SAKLA) and 2.5 L Mab anti 6HIS-XL665 (Cisbio, Catalog #: 61HISXLA) to the plate, and incubate for 60 minutes at RT. Read on a multimode plate reader (PerkinElmer, Envision 2015) in time-resolved fluorescence (TRF) mode, with excitation at 337 nm and emission at both 620 nm and 665 nm. Average HTRF signal of high control (Wells with 1% DMSO) was calculated and as Vehicle Control (VC). Average HTRF signal of low control (no Enzyme) was calculated and as Positive control (PC).
(§1) IC50 values were determined by fitting the data to the standard 4 parameters with Hill Slope using GraphPad Prism software.

The subject of the next experiment is Kuramochi cell line. The experiment is described as follows: Cell Viability Assay (Cell Titer-Glo, 7 days). The class given is cell-based. Particulars: 168 h, Kuramochi cells, 7 days incubation, read-out: PARG Cell viability (IC50). On the procedure: Cell viability studies were conducted in Kuramochi cell line. Cells were maintained in RPMI (Hyclone, Catalog #: SH3080901B) supplemented with 10% v/v FBS (AusGeneX, Catalog #: FBS500-S), 1% v/v Penicillin Streptomycin (Gibco, Catalog #: 15140122). Cells were seeded in 96-well plates (PerkinElmer, Catalog #: 6005680) at a density of 400 cells/well. Compounds dissolved in DMSO were plated in duplicate using a multichannel pipette, and tested on a 9-point 3-fold serial dilution. Cells were incubated for 7 days in a 37° C. active humidified incubator at 5% CO2. Cell viability was measured using the Cell Titer-Glo reagent (Promega, Catalog #: G7573) as manufacturer's instructions. Luminescence signal was measured with a multimode plate reader (Perkin Elmer, Envision 2105 or BMG, ClarioStar Plus). Average values of DMSO treated wells in a plate was calculated and as high control (HC). Average values of only medium in a plate was calculated and as low control (LC)
as §1

hPARG (C-terminal His6-tag), sequence (Q86W56 whole entry): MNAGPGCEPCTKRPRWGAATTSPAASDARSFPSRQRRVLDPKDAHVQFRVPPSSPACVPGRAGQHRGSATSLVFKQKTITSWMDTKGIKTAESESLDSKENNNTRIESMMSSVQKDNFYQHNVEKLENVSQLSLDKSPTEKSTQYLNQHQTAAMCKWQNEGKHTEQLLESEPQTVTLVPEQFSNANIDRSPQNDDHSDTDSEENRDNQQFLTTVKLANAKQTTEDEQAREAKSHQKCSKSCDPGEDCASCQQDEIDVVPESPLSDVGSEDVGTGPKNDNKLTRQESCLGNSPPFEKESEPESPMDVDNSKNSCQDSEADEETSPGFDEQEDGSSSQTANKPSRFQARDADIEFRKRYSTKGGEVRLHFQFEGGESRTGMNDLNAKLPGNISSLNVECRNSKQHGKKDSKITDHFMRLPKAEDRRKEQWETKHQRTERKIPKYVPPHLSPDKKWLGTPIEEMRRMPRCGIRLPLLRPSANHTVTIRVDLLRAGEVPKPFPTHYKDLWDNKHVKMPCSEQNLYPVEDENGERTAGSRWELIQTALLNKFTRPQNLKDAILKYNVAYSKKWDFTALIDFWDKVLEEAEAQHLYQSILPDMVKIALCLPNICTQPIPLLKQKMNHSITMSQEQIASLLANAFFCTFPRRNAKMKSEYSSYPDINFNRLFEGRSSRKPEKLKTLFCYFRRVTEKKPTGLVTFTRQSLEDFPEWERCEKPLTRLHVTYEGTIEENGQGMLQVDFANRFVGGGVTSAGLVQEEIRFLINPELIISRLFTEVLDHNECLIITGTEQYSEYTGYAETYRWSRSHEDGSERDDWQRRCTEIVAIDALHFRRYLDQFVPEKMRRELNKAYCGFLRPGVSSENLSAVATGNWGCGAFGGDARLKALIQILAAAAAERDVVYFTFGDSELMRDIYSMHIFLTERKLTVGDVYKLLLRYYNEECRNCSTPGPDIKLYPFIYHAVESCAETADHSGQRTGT

With `CC1(NS(=O)(=O)c2ccc3c4c(N5CCN(C(=O)C6CC6)CC5)ncnc4n(-c4nnc(C(F)F)s4)c3c2)CC1` [Example 1, 4-(4-(Cyclopropanecarbonyl)piperazin-1-yl)-9-(5-(difluoromethyl)-1,3,4-thiadiazol-2-yl)-N-(1-methylcyclopropyl)-9H-pyrimido[4,5-b]indole-7-sulfonamide], the IC50 is less than 100 nM in experiment [1] and 100 to 1000 nM with Kuramochi cell line. The matching figures for `N#CC1(NS(=O)(=O)c2ccc3c4c(N5CCN(C(=O)C6CC6)CC5)ncnc4n(-c4nnc(C(F)F)s4)c3c2)CC1` [Example 2, N-(1-Cyanocyclopropyl)-4-(4-(cyclopropanecarbonyl)piperazin-1-yl)-9-(5-(difluoromethyl)-1,3,4-thiadiazol-2-yl)-9H-pyrimido[4,5-b]indole-7-sulfonamide]: less than 100 nM and less than 100 nM. The matching figures for `CC(C)(C)C(=O)N1CCN(c2ncnc3c2c2ccc(S(=O)(=O)NC4(C#N)CC4)cc2n3-c2nnc(C(F)F)s2)CC1` [Example 3, N-(1-Cyanocyclopropyl)-9-(5-(difluoromethyl)-1,3,4-thiadiazol-2-yl)-4-(4-pivaloylpiperazin-1-yl)-9H-pyrimido[4,5-b]indole-7-sulfonamide]: less than 100 nM and less than 100 nM.

Consider `CC1(C(=O)N2CCN(c3ncnc4c3c3ccc(S(=O)(=O)NC5(C#N)CC5)cc3n4-c3nnc(C(F)F)s3)CC2)CCC1` [Example 4, N-(1-Cyanocyclopropyl)-9-(5-(difluoromethyl)-1,3,4-thiadiazol-2-yl)-4-(4-(1-methylcyclobutane-1-carbonyl)piperazin-1-yl)-9H-pyrimido[4,5-b]indole-7-sulfonamide], for which the IC50 was less than 100 nM in experiment [1] and 100 to 1000 nM with Kuramochi cell line. As to `C[C@@H]1CN(c2ncnc3c2c2ccc(S(=O)(=O)NC4(C#N)CC4)cc2n3-c2nnc(C(F)F)s2)CCN1C(=O)C1CCC1` [Example 5, (R)-N-(1-Cyanocyclopropyl)-4-(4-(cyclobutanecarbonyl)-3-methylpiperazin-1-yl)-9-(5-(difluoromethyl)-1,3,4-thiadiazol-2-yl)-9H-pyrimido[4,5-b]indole-7-sulfonamide], the figures for the IC50 (in experiment [1]; with Kuramochi cell line) were less than 100 nM and 100 to 1000 nM, respectively.

On to `CN(C)C(=O)N1CCN(c2ncnc3c2c2ccc(S(=O)(=O)NC4(C#N)CC4)cc2n3-c2nnc(C(F)F)s2)CC1` [Example 6, 4-(7-(N-(1-Cyanocyclopropyl)sulfamoyl)-9-(5-(difluoromethyl)-1,3,4-thiadiazol-2-yl)-9H-pyrimido[4,5-b]indol-4-yl)-N,N-dimethylpiperazine-1-carboxamide], for which the IC50 (in experiment [1]; in the experiment with Kuramochi cell line) was less than 100 nM throughout. Take `CCN(C)C(=O)N1CCN(c2ncnc3c2c2ccc(S(=O)(=O)NC4(C#N)CC4)cc2n3-c2nnc(C(F)F)s2)CC1` [Example 7, 4-(7-(N-(1-Cyanocyclopropyl)sulfamoyl)-9-(5-(difluoromethyl)-1,3,4-thiadiazol-2-yl)-9H-pyrimido[4,5-b]indol-4-yl)-N-ethyl-N-methylpiperazine-1-carboxamide]: the IC50 (in experiment [1]; with Kuramochi cell line) was less than 100 nM throughout.

As for `N#CC1(NS(=O)(=O)c2ccc3c4c(N5CCN(C(=O)N6CCOCC6)CC5)ncnc4n(-c4nnc(C(F)F)s4)c3c2)CC1` [Example 8, N-(1-Cyanocyclopropyl)-9-(5-(difluoromethyl)-1,3,4-thiadiazol-2-yl)-4-(4-(morpholine-4-carbonyl)piperazin-1-yl)-9H-pyrimido[4,5-b]indole-7-sulfonamide], the IC50 (in experiment [1]; in the experiment with Kuramochi cell line) was less than 100 nM throughout.

For the molecule `CN1CCN(C(=O)N2CCN(c3ncnc4c3c3ccc(S(=O)(=O)NC5(C#N)CC5)cc3n4-c3nnc(C(F)F)s3)CC2)CC1` [Example 9, N-(1-Cyanocyclopropyl)-9-(5-(difluoromethyl)-1,3,4-thiadiazol-2-yl)-4-(4-(4-methylpiperazine-1-carbonyl)piperazin-1-yl)-9H-pyrimido[4,5-b]indole-7-sulfonamide], the IC50 in experiment [1] is less than 100 nM; with Kuramochi cell line, 100 to 1000 nM.

Regarding `CC1(C(=O)N2CCN(c3ncnc4c3c3ccc(S(=O)(=O)NC5(C#N)CC5)cc3n4-c3nnc(C(F)F)s3)CC2)CC1` [Example 10, N-(1-Cyanocyclopropyl)-9-(5-(difluoromethyl)-1,3,4-thiadiazol-2-yl)-4-(4-(1-methylcyclopropane-1-carbonyl)piperazin-1-yl)-9H-pyrimido[4,5-b]indole-7-sulfonamide], the IC50 (in experiment [1]; in the experiment with Kuramochi cell line) was less than 100 nM throughout.

In the case of `CC(C)C(=O)N1CCN(c2ncnc3c2c2ccc(S(=O)(=O)NC4(C#N)CC4)cc2n3-c2nnc(C(F)F)s2)CC1` [Example 11, N-(1-Cyanocyclopropyl)-9-(5-(difluoromethyl)-1,3,4-thiadiazol-2-yl)-4-(4-isobutyrylpiperazin-1-yl)-9H-pyrimido[4,5-b]indole-7-sulfonamide], the IC50 (in experiment [1]; in the experiment on Kuramochi cell line) was less than 100 nM throughout. With `N#CC1(NS(=O)(=O)c2ccc3c4c(N5CCN(C(=O)C6CCOCC6)CC5)ncnc4n(-c4nnc(C(F)F)s4)c3c2)CC1` [Example 12, N-(1-Cyanocyclopropyl)-9-(5-(difluoromethyl)-1,3,4-thiadiazol-2-yl)-4-(4-(tetrahydro-2H-pyran-4-carbonyl)piperazin-1-yl)-9H-pyrimido[4,5-b]indole-7-sulfonamide], the IC50 (in experiment [1]; in the experiment on Kuramochi cell line) was less than 100 nM in each case. Turning to `N#CC1(NS(=O)(=O)c2ccc3c4c(N5CCN(C(=O)c6ccc(F)cc6)CC5)ncnc4n(-c4nnc(C(F)F)s4)c3c2)CC1` [Example 13, N-(1-Cyanocyclopropyl)-9-(5-(difluoromethyl)-1,3,4-thiadiazol-2-yl)-4-(4-(4-fluorobenzoyl)piperazin-1-yl)-9H-pyrimido[4,5-b]indole-7-sulfonamide], the IC50 (in experiment [1]; in the experiment on Kuramochi cell line) was 100 to 1000 nM in each case. For the molecule `N#CC1(NS(=O)(=O)c2ccc3c4c(N5CCN(C(=O)c6ccccn6)CC5)ncnc4n(-c4nnc(C(F)F)s4)c3c2)CC1` [Example 14, N-(1-Cyanocyclopropyl)-9-(5-(difluoromethyl)-1,3,4-thiadiazol-2-yl)-4-(4-picolinoylpiperazin-1-yl)-9H-pyrimido[4,5-b]indole-7-sulfonamide], the IC50 in the experiment on Kuramochi cell line was less than 100 nM.

Regarding `CC(C)OC(=O)N1CCN(c2ncnc3c2c2ccc(S(=O)(=O)NC4(C#N)CC4)cc2n3-c2nnc(C(F)F)s2)CC1` [Example 15, Isopropyl 4-(7-(N-(1-cyanocyclopropyl)sulfamoyl)-9-(5-(difluoromethyl)-1,3,4-thiadiazol-2-yl)-9H-pyrimido[4,5-b]indol-4-yl)piperazine-1-carboxylate], the concentration for half-maximal inhibition (IC50) (in experiment [1]; in the experiment on Kuramochi cell line) was 100 to 1000 nM each time. In the case of `CC(C)C(=O)N1C[C@H]2CC[C@@H]1CN2c1ncnc2c1c1ccc(S(=O)(=O)NC3(C#N)CC3)cc1n2-c1nnc(C(F)F)s1` [Example 32, N-(1-Cyanocyclopropyl)-9-(5-(difluoromethyl)-1,3,4-thiadiazol-2-yl)-4-((1R,4R)-5-isobutyryl-2,5-diazabicyclo[2.2.2]octan-2-yl)-9H-pyrimido[4,5-b]indole-7-sulfonamide], the half-maximal inhibitory concentration (IC50) in the experiment on Kuramochi cell line fell in the range of 100 to 1000 nM.
